# Laboratory results reported in ChEMBL document CHEMBL4342418, “1,2,3-Triazole-containing hybrids as potential anticancer agents: Current developments, action mechanisms and structure-activity relationships” (Eur J Med Chem, 2019).
# Tests used:
# A549 [1] = assay: Antiproliferative activity against human A549 cells assessed as reduction in cell viability after 72 hrs by MTT assay; assay type: functional, cell-based; details: A549, 72 h
# A549/TR = assay: Antiproliferative activity against human A549/TR cells assessed as reduction in cell viability after 72 hrs by MTT assay; assay type: functional, cell-based
# A549/CDDP = assay: Antiproliferative activity against human A549/CDDP cells assessed as reduction in cell viability after 72 hrs by MTT assay; assay type: functional, cell-based
# HepG2 [2] = assay: Antiproliferative activity against human HepG2 cells assessed as reduction in cell viability after 72 hrs by MTT assay; assay type: functional, cell-based; details: HepG2, 72 h
# HCT-116 [3] = assay: Antiproliferative activity against human HCT116 cells assessed as reduction in cell viability after 72 hrs by MTT assay; assay type: functional, cell-based; details: HCT-116, 72 h
# U-251 = assay: Antiproliferative activity against human U251 cells assessed as reduction in cell viability after 72 hrs by MTT assay; assay type: functional, cell-based; details: U-251, 72 h
# A549 [4] = assay: Antitumour activity against human A549 cells xenografted in Kunming mice assessed as tumour growth inhibition at 5 mg/kg, iv bid administered and measured after week relative to control; assay type: functional; details: Mus musculus, read-out: TGI
# A549 [5] = assay: Antitumour activity against human A549 cells xenografted in Kunming mice assessed as tumour growth inhibition at 10 mg/kg, iv bid administered and measured after week hrs relative to control; assay type: functional; details: Mus musculus, read-out: TGI
# A549 [6] = assay: Antitumour activity against human A549 cells xenografted in Kunming mice assessed as tumour growth inhibition at 20 mg/kg, iv bid administered and measured after week relative to control; assay type: functional; details: Mus musculus, read-out: TGI
# A549 [7] = assay: Antitumour activity against human A549 cells xenografted in Kunming mice assessed as tumour growth inhibition at 50 mg/kg, po administered and measured after week relative to control; assay type: functional; details: Mus musculus, read-out: TGI
# HeLa [8] = assay: Antiproliferative activity against human HeLa cells assessed as reduction in cell viability after 24 hrs by MTT assay; assay type: functional, cell-based
# SK-BR-3 = assay: Antiproliferative activity against human SKBR3 cells assessed as reduction in cell viability after 24 hrs by MTT assay; assay type: functional, cell-based; details: SK-BR-3, 24 h
# HepG2 [9] = assay: Antiproliferative activity against human HepG2 cells assessed as reduction in cell viability after 24 hrs by MTT assay; assay type: functional, cell-based; details: HepG2, 24 h
# K562 = assay: Antiproliferative activity against human K562 cells assessed as reduction in cell viability after 24 hrs by MTT assay; assay type: functional, cell-based; details: K562, 24 h
# PC-3 = assay: Antiproliferative activity against human PC3 cells assessed as reduction in cell viability after 24 hrs by MTT assay; assay type: functional, cell-based; details: PC-3, 24 h
# A-431 = assay: Antiproliferative activity against human A431 cells assessed as reduction in cell viability after 24 hrs by MTT assay; assay type: functional, cell-based; details: A-431, 24 h
# MDA-MB-231 [10] = assay: Antiproliferative activity against human MDA-MB-231 cells assessed as reduction in cell viability after 24 hrs by MTT assay; assay type: functional, cell-based; details: MDA-MB-231, 24 h
# COLO 205 = assay: Antiproliferative activity against human COLO205 cells assessed as reduction in cell viability after 24 hrs by MTT assay; assay type: functional, cell-based; details: COLO 205, 24 h
# A549 [11] = assay: Antiproliferative activity against human A549 cells assessed as reduction in cell viability after 24 hrs by MTT assay; assay type: functional, cell-based; details: A549, 24 h
# MCF7 [12] = assay: Antiproliferative activity against human MCF7 cells assessed as reduction in cell viability after 48 hrs by MTT assay; assay type: functional, cell-based; details: MCF7, 48 h
# HCT-116 [13] = assay: Antiproliferative activity against human HCT116 cells assessed as reduction in cell viability after 48 hrs by MTT assay; assay type: functional, cell-based; details: HCT-116, 48 h
# MDA-MB-231 [14] = assay: Antiproliferative activity against human MDA-MB-231 cells assessed as reduction in cell viability after 48 hrs by MTT assay; assay type: functional, cell-based; details: MDA-MB-231, 48 h
# A549 [15] = assay: cells; assay type: functional, cell-based; details: Homo sapiens
# Description: Antiproliferative activity against human A549 cells by MTT assay
# MCF7 [16] = assay: Antiproliferative activity against human MCF7 cells assessed as reduction in cell viability after 72 hrs by MTT assay; assay type: functional, cell-based; details: MCF7, 72 h
# HeLa [17] = assay: Antiproliferative activity against human HeLa cells by SRB assay; assay type: functional, cell-based
# MDA-MB-231 [18] = assay: Antiproliferative activity against human MDA-MB-231 cells by SRB assay; assay type: functional
# T47D = assay: Antiproliferative activity against human T47D cells assessed as reduction in cell viability after 48 hrs by MTT assay; assay type: functional, cell-based
# Caco-2 = assay: Antiproliferative activity against human Caco2 cells assessed as reduction in cell viability after 48 hrs by MTT assay; assay type: functional, cell-based; details: Caco-2, 48 h
# [19] = Antiproliferative activity against human MiaPaCa cells by SRB assay; assay type: functional; details: MIA PaCa-2
# IMR-32 [20] = assay: Antiproliferative activity against human IMR32 cells by SRB assay; assay type: functional
# HeLa [21] = assay: Antiproliferative activity against human HeLa cells assessed as reduction in cell viability after 48 hrs by MTT assay; assay type: functional, cell-based
# MDA-MB-231 [22] = assay: Antiproliferative activity against human MDA-MB-231 cells assessed as reduction in cell viability after 72 hrs by MTT assay; assay type: functional, cell-based; details: MDA-MB-231, 72 h
# U-87 MG = assay: Antiproliferative activity against human U87 cells assessed as reduction in cell viability after 72 hrs by MTT assay; assay type: functional, cell-based, U-87MG ATCC
# HT-29 = assay: Antiproliferative activity against human HT-29 cells assessed as reduction in cell viability after 72 hrs by MTT assay; assay type: functional, cell-based; details: HT-29, 72 h
# MOLT-4 = assay: Antiproliferative activity against human MOLT4 cells assessed as reduction in cell viability after 72 hrs by MTT assay; assay type: functional, cell-based; details: MOLT-4, 72 h
# SiHa = assay: Growth inhibition in human SiHa cells after 48 hrs by SRB assay; assay type: functional
# PANC-1 = assay: Growth inhibition in human PANC1 cells after 48 hrs by SRB assay; assay type: functional; details: PANC-1, 48 h
# MDA-MB-231 [23] = assay: Growth inhibition in human MDA-MB-231 cells after 48 hrs by SRB assay; assay type: functional; details: MDA-MB-231, 48 h
# IMR-32 [24] = assay: Growth inhibition in human IMR32 cells after 48 hrs by SRB assay; assay type: functional; details: IMR-32, 48 h
# DU-145 = assay: Growth inhibition in human DU145 cells after 48 hrs by SRB assay; assay type: functional; details: DU-145, 48 h
# A549 [25] = assay: Growth inhibition in human A549 cells after 48 hrs by SRB assay; assay type: functional; details: A549, 48 h
# IMR-32 [26] = assay: Antiproliferative activity against human IMR32 cells assessed as reduction in cell viability after 72 hrs by MTT assay; assay type: functional, cell-based; details: IMR-32, 72 h
# MDA-MB-231 [27] = assay: cells; details: Homo sapiens
# Description: Antiproliferative activity against human MDA-MB-231 cells assessed as reduction in cell viability preincubated for 24 hrs under hypoxia condition further incubated for 72 hrs under normaxic condition by MTT assay
# A549 [28] = assay: Potency index, ratio of foretinib IC50 to test compound IC50 for antiproliferative activity against human A549 cells; assay type: functional
# HepG2 [29] = assay: Potency index, ratio of foretinib IC50 to test compound IC50 for antiproliferative activity against human HepG2 cells; assay type: functional
# MCF7 [30] = assay: Potency index, ratio of foretinib IC50 to test compound IC50 for antiproliferative activity against human MCF7 cells; assay type: functional
# HepG2 [31] = assay: Antiproliferative activity against human HepG2 cells by MTT assay; assay type: functional, cell-based
# MGC-803 [32] = assay: Antiproliferative activity against human MGC803 cells by MTT assay; assay type: functional, cell-based
# SK-N-SH [33] = assay: Antiproliferative activity against human SK-N-SH cells by MTT assay; assay type: functional, cell-based
# MGC-803 [34] = assay: Potency index, ratio of 5-Fluorouracil IC50 to test compound IC50 for antiproliferative activity against human MGC803 cells by MTT assay; assay type: functional
# SK-N-SH [35] = assay: Potency index, ratio of 5-Fluorouracil IC50 to test compound IC50 for antiproliferative activity against human SK-N-SH cells by MTT assay; assay type: functional
# HepG2 [36] = assay: Potency index, ratio of 5-Fluorouracil IC50 to test compound IC50 for antiproliferative activity against human HepG2 cells by MTT assay; assay type: functional
# SNB-19 = assay: Antiproliferative activity against human SNB19 cells assessed as reduction in cell viability after 48 hrs by MTT assay; assay type: functional, cell-based; details: SNB-19, 48 h
compound,measurement,setting,value
CC(C)=CCC12OC(C)(C)C3CC(C=C4C(=O)c5c(OCc6cn(CCN7CCOCC7)nn6)cccc5OC431)C2=O (stereo not drawn),IC50,A549 [1],310 to 3750 nM
same,IC50,A549/TR,310 to 3750 nM
same,IC50,A549/CDDP,310 to 3750 nM
same,IC50,HepG2 [2],310 to 3750 nM
same,IC50,HCT-116 [3],310 to 3750 nM
same,IC50,U-251,310 to 3750 nM
same,inhibition in vivo at 5 mg/kg,A549 [4],30.9%
same,inhibition in vivo at 10 mg/kg,A549 [5],52.2%
same,inhibition in vivo at 20 mg/kg,A549 [6],71.3%
same,inhibition in vivo at 50 mg/kg,A549 [7],66.4%
COc1ccc(-c2nnn(Cc3cc(F)ccc3F)c2-c2nc3cc(C)ccc3o2)cc1,IC50,HeLa [8],6.8 µg/mL
same,IC50,SK-BR-3,7.1 µg/mL
same,IC50,HepG2 [9],11.2 µg/mL
COc1cccc2c1C(=O)c1c(O)c3c(c(O)c1C2=O)C[C@@](O)(C(=O)CO)C[C@@H]3O[C@H]1C[C@H](N)[C@H](O)[C@H](C)O1 [DOXORUBICIN],IC50,K562,1430 to 12000 nM
same,IC50,PC-3,1430 to 12000 nM
same,IC50,A-431,1430 to 12000 nM
same,IC50,MDA-MB-231 [10],1430 to 12000 nM
same,IC50,COLO 205,1430 to 12000 nM
same,IC50,A549 [11],1430 to 12000 nM
same,IC50,MCF7 [12],1000 to 10000 nM
same,IC50,HCT-116 [13],550 to 10000 nM
same,IC50,MDA-MB-231 [14],550 to 4630 nM
same,IC50,A549 [15],3300 nM
same,IC50,MCF7 [16],15 to 335 nM
same,GI50,HeLa [17],23 to 97 nM
same,GI50,MDA-MB-231 [18],23 to 97 nM
same,IC50,T47D,1000 to 10000 nM
same,IC50,Caco-2,1000 to 10000 nM
same,GI50,[19],23 to 97 nM
same,GI50,IMR-32 [20],23 to 97 nM
same,IC50,HeLa [21],550 to 4630 nM
same,IC50,MDA-MB-231 [22],80 to 425 nM
same,IC50,U-87 MG,80 to 425 nM
same,IC50,HT-29,15 to 335 nM
same,IC50,MOLT-4,15 to 335 nM
same,GI50,SiHa,< 10 nM
same,GI50,PANC-1,< 10 nM
same,GI50,MDA-MB-231 [23],< 10 nM
same,GI50,IMR-32 [24],< 10 nM
same,GI50,DU-145,< 10 nM
same,GI50,A549 [25],< 10 nM
same,IC50,IMR-32 [26],80 to 425 nM
same,IC50,MDA-MB-231 [27],600 nM
O=C(Nc1ccc(Oc2ncnc3ccsc23)cc1)c1nnn(-c2ccc(Cl)cc2)c1C(F)(F)F,IC50,MCF7 [16],500 to 1000 nM
same,IC50,A549 [1],500 to 1000 nM
same,IC50,HepG2 [2],500 to 1000 nM
same,Ratio IC50,A549 [28],3.6 - 5.2
same,Ratio IC50,HepG2 [29],3.6 - 5.2
same,Ratio IC50,MCF7 [30],3.6 - 5.2
COc1cccc(Cn2cc(CNc3ccc(C(=O)/C=C/c4cccnc4)cc3)nn2)c1,IC50,HepG2 [31],1530 to 2730 nM
same,IC50,MGC-803 [32],1530 to 2730 nM
same,IC50,SK-N-SH [33],1530 to 2730 nM
same,Ratio IC50,MGC-803 [34],2.6 - 6.7
same,Ratio IC50,SK-N-SH [35],2.6 - 6.7
same,Ratio IC50,HepG2 [36],2.6 - 6.7
C=C(C)[C@@H]1CC[C@]2(OC(=O)c3cn(Cc4ccc(F)cc4)nn3)CC[C@]3(C)[C@H](CC[C@@H]4[C@@]5(C)CC[C@H](OC(=O)c6cn(Cc7ccc(F)cc7)nn6)C(C)(C)[C@@H]5CC[C@]43C)[C@@H]12,IC50,MCF7 [12],50 to 90 nM
same,IC50,T47D,50 to 90 nM
same,IC50,SNB-19,50 to 90 nM
